Results as given in ChEMBL document CHEMBL1156062, “Synthesis, SAR, and X-ray structure of tricyclic compounds as potent FBPase inhibitors” (Bioorg Med Chem Lett, 2009).

These molecules were tested against T1, Fructose-1,6-bisphosphatase 1 (Homo sapiens, UniProt P09467) (assay: Inhibition of human liver FBPase).
T1 sequence (P09467 whole entry): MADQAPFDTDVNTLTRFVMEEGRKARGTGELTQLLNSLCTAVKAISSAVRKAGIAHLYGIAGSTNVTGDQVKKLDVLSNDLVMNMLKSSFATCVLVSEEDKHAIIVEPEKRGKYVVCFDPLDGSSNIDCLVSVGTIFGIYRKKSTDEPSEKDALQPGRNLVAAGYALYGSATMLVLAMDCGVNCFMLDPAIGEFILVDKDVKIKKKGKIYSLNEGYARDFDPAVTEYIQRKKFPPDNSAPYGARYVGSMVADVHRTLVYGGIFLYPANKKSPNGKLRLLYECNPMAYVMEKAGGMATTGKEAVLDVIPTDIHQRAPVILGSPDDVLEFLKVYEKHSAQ
For Nc1nc2c(s1)Cc1ccc(P(=O)(O)O)cc1-2, the IC50 was 18.7 µM. In the case of Nc1nc2c(s1)CCc1cc(OP(=O)(O)O)ccc1-2, the IC50 is reported as 112 µM. Nc1nc2c(s1)CCCc1ccc(P(=O)(O)O)cc1-2 was tested, and the IC50 was 0.169 µM. Nc1nc2c(s1)Cc1cc(OP(=O)(O)O)ccc1-2 gave an IC50 of 146 µM. With Nc1nc2c(s1)CCc1ccc(CP(=O)(O)O)cc1-2 the IC50 was 0.84 µM. In the case of Nc1nc2c(s1)Cc1cc(OCP(=O)(O)O)ccc1-2, the IC50 is reported as 112 µM. Nc1nc2c(s1)CCc1cccc(OCP(=O)(O)O)c1-2 showed an IC50 of 21.5 µM. In the case of Nc1nc2c(s1)CCc1cc(P(=O)(O)O)ccc1-2, the IC50 is reported as 354 µM. For Nc1nc2c(s1)CCc1ccc(P(=O)(O)O)cc1-2, the IC50 was 9.32 µM. For Nc1nc2c(s1)CCc1cc(OCP(=O)(O)O)ccc1-2, the IC50 was 16.4 µM. For Nc1nc2c(s1)Cc1cc(P(=O)(O)O)ccc1-2, the IC50 was 91.9 µM. Molecule Nc1nc2c(s1)CCc1ccc(C(F)(F)P(=O)(O)O)cc1-2 has an IC50 of 0.047 µM. Molecule Nc1nc2c(s1)Cc1ccc(OP(=O)(O)O)cc1-2 has an IC50 of 307 µM. With Nc1nc2c(s1)CCCc1ccc(OP(=O)(O)O)cc1-2 the IC50 was 0.022 µM. Nc1nc2c(s1)Cc1cccc(P(=O)(O)O)c1-2 showed an IC50 of 28.4 µM. In the case of Nc1nc2c(s1)CCc1cccc(OP(=O)(O)O)c1-2, the IC50 is reported as 335 µM. Nc1nc2c(s1)CCc1ccc(OCP(=O)(O)O)cc1-2 gave an IC50 of 19.1 µM. Nc1nc2c(s1)Cc1ccc(OCP(=O)(O)O)cc1-2 was tested, and the IC50 was 112 µM. Molecule Nc1nc2c(s1)CCc1cccc(P(=O)(O)O)c1-2 has an IC50 of 354 µM. Nc1nc2c(s1)Cc1cccc(OP(=O)(O)O)c1-2 showed an IC50 of 0.07 µM. Molecule Nc1nc2c(s1)CCCc1ccc(OCP(=O)(O)O)cc1-2 has an IC50 of 41.7 µM.
